The values that follow come from publication PMC7522027 (Disease Models & Mechanisms, 2020).

Values joined by “and” are separate entries in the source; they are usually repeats but may differ in a detail not shown here. Equal values may be shown once.

For data set [1], the system named is zebrafish embryos. In words: zebrafish embryo assay (morphological developmental defects at 48 hpf). The format is in vivo, zebrafish (Danio rerio). The settings on record: for developmental defects in zebrafish embryos: broad concentration range; for effect on zebrafish embryo development: 20 µM (maximum tested concentration). As to the method: Zebrafish eggs obtained from family crosses of Tuebingen long fin zebrafish lines were used to assess the biological activity of all samples. The eggs were washed with fresh E3 medium and subsequently divided over 24-well plates, with ten embryos per well in 1000 µl E3 medium. Samples were added to the wells at various times as mentioned in the figures and legends. At 48 hpf, the zebrafish embryos were inspected for morphological developmental defects. Embryos displaying morphological defects were imaged using a Leica MZFLIII microscope equipped with a Leica DFC320 camera or Leica M165 FC microscope equipped with a Leica DMC5400 camera.

Data set [2] has as its system BMP2-induced SMAD1/5-dependent BRE-luc transcriptional reporter. The data set is described as follows: BMP2-induced BRE-luc transcriptional reporter assay in HepG2 cells. It is filed as cell-based, human. The note with it: HepG2, BMP2 50 ng/ml; cercosporamide 100 nM to 10 µM, LDN-193189 200 nM. As to the method: For luciferase transcriptional reporter assays, HepG2 cells were seeded in 9-cm plates at ∼60% confluency and transfected with polyethyleneimine (PEI). Twenty-four hours later, the transfected cells were seeded in 24-well plates at ∼60% confluency. Another 24 h later, the cells were serum starved for 6 h. Subsequently the cells were treated with compound or DMSO for 30 min. Thereafter, the cells were stimulated with BMP2 in the presence of compounds (or DMSO) for 16 h (overnight). Subsequently, the cells were washed with PBS and lysed. Luciferase activity was measured using the luciferase reporter assay system from Promega (Leiden, The Netherlands) by a Perkin Elmer luminometer Victor^3 1420. Each DNA transfection mixture was equalized with empty vector when necessary and every experiment was performed in triplicate. β-galactosidase expression construct was co-transfected and β-galactosidase was measured to normalize for differences in transfection efficiency. The BRE-luc reporter construct has been reported previously ([Korchynskyi and ten Dijke, 2002]).

For another data set, the target named is T1, caALK1 (Homo sapiens, UniProt P37023, Q201D).
T1 construct: expressed in transfected cells; host or cells: HEK 293T
In words: caALK1-induced SMAD1/5 phosphorylation in HEK 293T cells. It is filed as cell-based. The settings on record: cercosporamide 1-10 µM, LDN193189 200 nM. The text has this:
(§1) HepG2 or HEK 293T cells were lysed in Laemmli sample buffer. Proteins were separated by sodium dodecyl sulfate polyacrylamide gel electrophoresis (SDS-PAGE) and transferred onto […] polyvinylidene difluoride (PVDF) membrane (IPVH00010, Merck Millipore). Membranes were blocked using 5% non-fat dry milk in Tris-buffered saline with 0.1% Tween 20 (655204, Merck Millipore) and probed with the respective primary and secondary antibodies. The signal was detected using Clarity™ Western ECL Substrate (1705060, Bio-Rad) and ChemiDoc Imaging System (17001402, Bio-Rad). The antibodies used for immunoblotting were raised against the following proteins: phospho-SMAD1/5/8 ([Persson et al., 1998]; 1:1000), SMAD1 (Cell Signaling Technology, #6944; 1:1000), GAPDH (Merck Millipore, #G8795; 1:5000) and hemagglutinin (HA; Roche, #12CA5; 1:1000).
(§2) For experiments with the caALK type I receptor constructs, HEK 293T cells were seeded in 24-well plates at ∼90% confluency and transfected with the DNA expression constructs in the presence of PEI. Thirty hours after transfection, the cells were added to serum-starved medium and treated with compounds for 16 h (overnight). Subsequently, the cells were washed with PBS and lysed in Laemmli sample buffer. […]

The next data set deals with T2, caALK2 (Homo sapiens, UniProt Q04771, Q207D).
T2 construct: expressed in transfected cells; host or cells: HEK 293T
T2 sequence (Q04771 21-509 Q207D): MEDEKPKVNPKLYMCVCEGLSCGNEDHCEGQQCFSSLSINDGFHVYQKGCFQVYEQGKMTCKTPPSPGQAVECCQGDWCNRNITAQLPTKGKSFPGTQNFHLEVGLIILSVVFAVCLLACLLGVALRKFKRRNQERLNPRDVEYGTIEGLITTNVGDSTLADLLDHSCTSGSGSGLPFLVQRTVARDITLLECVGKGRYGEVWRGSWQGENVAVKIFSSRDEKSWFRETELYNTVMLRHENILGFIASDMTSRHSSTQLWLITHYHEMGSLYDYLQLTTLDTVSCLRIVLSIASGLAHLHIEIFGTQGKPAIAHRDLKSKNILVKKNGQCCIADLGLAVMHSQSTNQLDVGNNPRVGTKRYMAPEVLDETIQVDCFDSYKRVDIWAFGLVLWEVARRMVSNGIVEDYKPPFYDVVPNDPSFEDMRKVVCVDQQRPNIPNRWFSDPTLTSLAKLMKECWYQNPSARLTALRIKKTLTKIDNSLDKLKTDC
In words: caALK2-induced SMAD1/5 phosphorylation in HEK 293T cells. The format is cell-based. The settings on record: cercosporamide 1-10 µM, LDN193189 200 nM.
From the text: as §1, §2

A further data set addresses T3, caALK3 (Homo sapiens, UniProt P36894, Q233D).
T3 construct: expressed in transfected cells; host or cells: HEK 293T
The data set is described as follows: caALK3-induced SMAD1/5 phosphorylation in HEK 293T cells. The format is cell-based. The note with it: cercosporamide 1-10 µM, LDN193189 200 nM.
From the text: as §1, §2

A further data set deals with caALK6. The data set is described as follows: caALK6-induced SMAD1/5 phosphorylation in HEK 293T cells. The note with it: cercosporamide 1-10 µM, LDN193189 200 nM. It is filed as cell-based, human.
From the text: as §1, §2

Data set [3] relates to BMP2-induced SMAD1/5 phosphorylation. The data set is described as follows: BMP2-induced SMAD1/5 phosphorylation in HepG2 cells (immunoblot). The format is cell-based, human. The note with it: HepG2, BMP2 50 ng/ml, maximum tested concentration of 20 µM. Here is the method: For BMP stimulation, the HepG2 cells (∼50% confluency) were starved on serum-free medium for 6 h. Subsequently, prior to the addition of BMP ligands, the cells were treated with compound for 30 min. Next, the cells were stimulated with BMP2 (50 ng/ml) or BMP6 (50 ng/ml) for 45 min. The cells were then washed with PBS and lysed in Laemmli sample buffer for western blot analysis.
as §1
In general terms: In western blotting, separated proteins are transferred to a membrane and probed.

The test system of data set [4] is zebrafish embryos. In words: in situ hybridization with krox20/myod probes in treated zebrafish embryos. It is filed as in vivo, zebrafish (Danio rerio). The note with it: 750 nM from 6 hpf, fixed at 12 hpf. As to the method:
Embryos were treated from approximately 6 hpf until 12 hpf when they were fixed in 4% paraformaldehyde overnight. In situ hybridization was performed using krox20 and myod anti-sense RNA probes as described elsewhere ([Thisse and Thisse, 2008]).

T1 sequence (P37023 22-503 Q201D): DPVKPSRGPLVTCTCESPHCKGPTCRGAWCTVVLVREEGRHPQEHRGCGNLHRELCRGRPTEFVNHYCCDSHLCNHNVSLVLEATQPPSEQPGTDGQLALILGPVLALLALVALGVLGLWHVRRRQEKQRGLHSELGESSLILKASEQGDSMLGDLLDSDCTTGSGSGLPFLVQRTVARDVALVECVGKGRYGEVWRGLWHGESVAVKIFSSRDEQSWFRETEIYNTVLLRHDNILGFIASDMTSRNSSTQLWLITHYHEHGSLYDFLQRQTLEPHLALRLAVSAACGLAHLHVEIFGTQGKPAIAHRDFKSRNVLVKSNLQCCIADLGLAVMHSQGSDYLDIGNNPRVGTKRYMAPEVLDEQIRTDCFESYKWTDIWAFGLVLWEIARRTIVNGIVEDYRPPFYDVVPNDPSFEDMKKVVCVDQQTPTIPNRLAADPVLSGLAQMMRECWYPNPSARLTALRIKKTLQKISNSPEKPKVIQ
T3 sequence (P36894 24-532 Q233D): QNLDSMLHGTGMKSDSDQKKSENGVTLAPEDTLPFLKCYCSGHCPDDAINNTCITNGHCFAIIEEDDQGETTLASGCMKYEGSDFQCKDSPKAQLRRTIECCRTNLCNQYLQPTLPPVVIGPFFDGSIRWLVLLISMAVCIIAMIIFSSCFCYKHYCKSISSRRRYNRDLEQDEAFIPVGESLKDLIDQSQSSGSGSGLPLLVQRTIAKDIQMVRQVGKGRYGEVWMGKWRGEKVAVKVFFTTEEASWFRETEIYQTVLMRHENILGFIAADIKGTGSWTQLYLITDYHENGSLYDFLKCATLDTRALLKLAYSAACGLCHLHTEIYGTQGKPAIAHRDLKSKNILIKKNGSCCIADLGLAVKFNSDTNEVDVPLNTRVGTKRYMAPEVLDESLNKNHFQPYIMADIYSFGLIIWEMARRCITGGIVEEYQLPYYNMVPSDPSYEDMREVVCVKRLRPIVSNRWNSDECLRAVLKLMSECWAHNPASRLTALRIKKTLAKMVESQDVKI

For the compound `c1ccc2c(-c3cnn4cc(-c5ccc(N6CCNCC6)cc5)cnc34)ccnc2c1` [LDN-193189, reference compound], in the data set with zebrafish embryos [1] (5 µM, from 7 hpf onwards), the “developmental defects, single treatment” value is on record as “did not induce detectable developmental defects”. Further, the “effect on BMP2-induced BRE-luc activity” value in data set [2] is “potent antagonizing effect”. In addition, the “effect on caALK1-induced SMAD1/5 phosphorylation” value at caALK1 is on record as “strongly reduced”. Moreover, the “effect on caALK2-induced SMAD1/5 phosphorylation” value on caALK2 is reported as “strongly reduced”. Also, the “effect on caALK3-induced SMAD1/5 phosphorylation” value on caALK3 is recorded as “strongly reduced”. Besides, the “effect on caALK6-induced SMAD1/5 phosphorylation” value with caALK6 is “strongly reduced”.

As for `Cc1cccc(-c2nn(C(=S)Nc3ccccc3)cc2-c2ccnc3ccccc23)n1` [A83-01], the “developmental defects in zebrafish embryos” value in the data set on zebrafish embryos [1] was “severely curved tail and fused eyes”.

Consider `Cc1cc(Nc2cc(N)ncn2)c(=O)n2c1C(=O)NC21CCCCC1` [eFT508], for which the “effect on zebrafish embryo development” value was “no effect” in the data set on zebrafish embryos [1] and “did not induce developmental” in the data set on zebrafish embryos [1] (listed as eFT 508). For the same compound, the “effect on SMAD1/5 phosphorylation” value in data set [3] was “no effect”; in data set [3] (listed as eFT 508) it was “did not affect”.

`CC(C)Oc1ccc(-c2cnc3c(-c4ccnc5ccccc45)cnn3c2)cc1` [DMH-1]: the lethality result in the data set with zebrafish embryos [1] (250 nM, treatment from 2 hpf onwards) was “lethal”. Besides, the “embryos in which treatment is lethal” value with zebrafish embryos [1] (250 nM, treatment from 4 hpf) is 50%. Also, the phenotype entry with zebrafish embryos [1] (750 nM) is “loss of the ventral fin”. In the data set with zebrafish embryos [1] (DMH-1 treatment at 8 hpf (250 nM, Fig. S3)), the “phenotype at 48 hpf” value is given as “mild defects”. Also, the krox20 expression pattern result with zebrafish embryos [4] is recorded as “induced lateral expression of krox20”. Also, the “fraction of embryos showing the pattern” value with zebrafish embryos [4] (one fraction per depicted pattern) was 9/13 and 4/13.

With `Cc1cccc(-c2[nH]ncc2-c2ccc3ncccc3n2)n1` [ALK5 kinase inhibitor II], the “developmental defects in zebrafish embryos” value in the data set with zebrafish embryos [1] is “severely curved tail and fused eyes”.
